One assay has as its target T1, CDK2/CycE (Homo sapiens, UniProt P24941).
T1 construct: GST; purchased ProQinase GmbH (Freiburg, Germany); host or cells: insect cells (Sf9)
In words: CDK2/CycE kinase assay (TR-FRET). The settings on record: 10 μM ATP. The format is biochemical. From the text: CDK2/CycE-inhibitory activity of compounds of the present invention was quantified employing the CDK2/CycE TR-FRET assay as described in the following paragraphs.
Recombinant fusion proteins of GST and human CDK2 and of GST and human CycE, expressed in insect cells (Sf9) and purified by Glutathion-Sepharose affinity chromatography, were purchased from ProQinase GmbH (Freiburg, Germany). As substrate for the kinase reaction biotinylated peptide biotin-Ttds-YISPLKSPYKISEG (C-terminus in amid form) was used which can be purchased e.g. form the company JERINI peptide technologies (Berlin, Germany).
For the assay 50 nl of a 100 fold concentrated solution of the test compound in DMSO was pipetted into a black low volume 384 well microtiter plate (Greiner Bio-One, Frickenhausen, Germany), 2 μl of a solution of CDK2/CycE in aqueous assay buffer [50 mM Tris/HCl pH 8.0, 10 mM MgCl2, 1.0 mM dithiothreitol, 0.1 mM sodium ortho-vanadate, 0.01% (v/v) Nonidet-P40 (Sigma)] were added and the mixture was incubated for 15 min at 22° C. to allow pre-binding of the test compounds to the enzyme before the start of the kinase reaction. Then the kinase reaction was started by the addition of 3 μl of a solution of adenosine-tri-phosphate (ATP, 16.7 μM=>final conc. in the 5 μl assay volume is 10 μM) and substrate (1.25 μM=>final conc. in the 5 μl assay volume is 0.75 μM) in assay buffer and the resulting mixture was incubated for a reaction time of 25 min at 22° C. […]
The resulting mixture was incubated 1 h at 22° C. to allow the formation of complex between the phosphorylated biotinylated peptide and the detection reagents. Subsequently the amount of phosphorylated substrate was evaluated by measurement of the resonance energy transfer from the Eu-chelate to the streptavidine-XL. Therefore, the fluorescence emissions at 620 nm and 665 nm after excitation at 350 nm was measured in a TR-FRET reader, e.g. a Rubystar (BMG Labtechnologies, Offenburg, Germany) or a Viewlux (Perkin-Elmer). […]
On the technique in general: Time-resolved FRET reads energy transfer from a long-lived donor to a nearby acceptor.

In assay [1] the test system is spindle assembly checkpoint (phosphorylated histone H3 on serine 10) in HeLa cells. In words: SAC-Formation - Paclitaxel-Induced Assay. The format is cell-based. Conditions: Homo sapiens, paclitaxel 0.05 μM, 24 h incubation. An excerpt:
The spindle assembly checkpoint assures the proper segregation of chromosomes during mitosis. Upon entry into mitosis, chromosomes begin to condensate which is accompanied by the phosphorylation of histone H3 on serine 10. Dephosphorylation of histone H3 on serine 10 begins in anaphase and ends at early telophase. Accordingly, phosphorylation of histone H3 on serine 10 can be utilized as a marker of cells in mitosis. Nocodazole is a microtubule destabilizing substance. Paclitaxel is a microtubule stabilizing compound. Thus, nocodazole as well as paclitaxel interfere with microtubule dynamics and mobilize the spindle assembly checkpoint. […] The mitotic breakthrough can be detected by the decrease of cells with phosphorylation of histone H3 on serine 10. This decline is used as a marker to determine the capability of compounds of the present invention to induce a mitotic breakthrough. The typical morphological alteration of nuclei with a prematurely completed mitosis after SAC-inhibition can be monitored via image analysis routines supporting those findings.
The nocodazole and paclitaxel variations were used to focus on compounds that are capable of inhibiting a SAC induced by both microtubule destabilization as well as microtubule stabilization. […]
Cultivated cells of the human cervical tumor cell line HeLa (ATCC CCL-2) were plated at a density of 1000 cells/well in a 1536-well microtiter plate in 2 μl PAA Ham's F12 Medium supplemented with 1% (v/v) glutamine, 1% (v/v) penicillin, 1% (v/v) streptomycin and 10% (v/v) fetal calf serum. […] Images were acquired with a PERKIN ELMER OPERA™ High-Content Analysis reader. Images were analyzed with image analysis software MetaXpress™ from Molecular devices utilizing the Mitotic Index application module. In this assay both labels HOECHST 33342 and phosphorylated Histone H3 on serine 10 were measured. […] The raw assay data were further analyzed by four-parametric hill equation using Genedata's Assay Analyzer and Condoseo software.

Molecules are shown by their SMILES. Some results are limits rather than exact numbers.

With `Cc1noc(Nc2cnc(C(F)(F)F)cn2)c1C(=O)Nc1ccc(OC2CCN(CCC(F)(F)F)CC2)nc1` [Example 1a, 3-Methyl-5-{[5-(trifluoromethyl)pyrazin-2-yl]amino}-N-(6-{[1-(3,3,3-trifluoropropyl)-piperidin-4-yl]oxy}pyridin-3-yl)-1,2-oxazole-4-carboxamide], the IC50 at CDK2/CycE is over 20000 nM; in assay [1], 760 nM.
The like results for `Cc1noc(Nc2cnc(C(=O)NC3CCN(CC(F)F)CC3)cn2)c1C(=O)Nc1ccc(F)c(F)c1` [Example 1b, N-[1-(2,2-Difluoroethyl)piperidin-4-yl]-5-({4-[(3,4-difluorophenyl)carbamoyl]-3-methyl-1,2-oxazol-5-yl}amino)pyrazine-2-carboxamide] were, in that order, over 20000 nM and 630 nM.
The corresponding values for `Cc1noc(Nc2cnc(C(F)(F)F)cn2)c1C(=O)Nc1ccc(F)c(F)c1` [Example 1c, N-(3,4-Difluorophenyl)-3-methyl-5-{[5-(trifluoromethyl)pyrazin-2-yl]amino}-1,2-oxazole-4-carboxamide] are over 20000 nM and 180 nM.

The IC50 is the concentration needed to halve the response being measured.
